Measurements published in patent US12673041B2, “4-aminobut-2-enamide derivatives and salt thereof” (TAIHO PHARMACEUTICAL CO., LTD., priority 2019, dated 2026).

Legend:
[1] = molecular target: T1, GMPPNP-bound KRAS G12C protein and cRAF RAS-binding domain (cRAF-RBD) (Homo sapiens, UniProt P01116, G12C); assay: Inhibitory activity on interaction between KRAS G12C and cRAF (Alpha technology); format: biochemical; conditions: GMPPNP-bound KRAS G12C incubated with compound at 25° C. for 1 hour, then cRAF-RBD, Alpha signal; read-out: IC50
T1 construct: made in house; host or cells: E. coli
Summary of the method: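 GMPPNP-loaded His-KRAS G12C (aa 1-169) preincubated 1 h at 25 °C with compound (pH 7.5 Tris, 1 mM MgCl2, TCEP, Tween 20), then cRAF-RBD (aa 50-132) and Alpha reagents added for 1.5 h at RT. Inhibition scaled between DMSO (0%) and GDP-bound KRAS (100%); IC50 by curve fitting.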

MIA PaCa-2 cells = assay: Growth inhibition activity on KRAS-G12C mutant cell line (MIA PaCa-2); format: cell-based; conditions: Homo sapiens, 72 h; MIA PaCa-2, 3-day culture, CellTiter-Glo 3D
Method: MIA PaCa-2 cells (given by Sumitomo Dainippon Pharma Co., Ltd.), which are a KRAS-G12C mutant human pancreas cancer cell line, were suspended in a 10% fetal bovine serum-containing RPMI1640 medium (manufactured by Fujifilm Wako Pure Chemical Corporation.). The cell suspension was seeded into each well of a 384-well U bottom microplate and cultured in an incubator containing 5% CO2 gas at 37° C. for 1 day. The compounds obtained in the “Preparation of Compounds” section were used as test compounds and were dissolved in DMSO, respectively, and each test compound was diluted with DMSO to give a concentration 500 times the final concentration. The resultant solution of the test compound in DMSO was diluted with the medium used for suspending cells and added to each well of the cell-culture plate to give a DMSO final concentration of 0.2%, followed by culture in an incubator containing 5% CO2 gas at 37° C. for another 3 days. The cell count after 3-day culture in the presence of the test compound was measured using CellTiter-Glo 3D Reagent (manufactured by Promega Corporation). All wells were added with CellTiter-Glo 3D Reagent and mixed for 10 minutes. 30 minutes after mixing, luminescence was measured by a plate reader. The growth inhibition rate was calculated from the following equation, and the concentration of the test compound at which 50% inhibition was achieved (IC50 (nM)) was determined. […] Growth Inhibition Rate (%)=(C−T)/(C)×100 • T: the emission intensity in a well into which a test compound was added. • C: the emission intensity in a well into which a test compound was not added.

[2] = molecular target: Gppcp-bound recombinant K-Ras4B G12C mutant protein (amino acids 1-169, C51S/C80L/C118S) (Homo sapiens, UniProt P01116, C118S/C51S/C80L/G12C); assay: KRASG12C binding assay (LC-MS compound binding rate); conditions: test compound final concentration 0.5 μM, 25° C., 1 hour
Summary of the method: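 Gppcp-bound K-Ras4B G12C (aa 1-169, C51S/C80L/C118S) at 50 nM in 1×TBS, 0.1 mM TCEP, 0.25 mM MgCl2, 50 μM Gppcp was incubated 1 hour at 25° C with compound at 0.5 μM final. Intact-protein LC-MS gave binding rate as single-adduct signal over total KRAS signal, graded A (≥80%) to E (<20%).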

SMILES | IC50 [1] [nM] | IC50 (MIA PaCa-2 cells) [nM] | binding rate [2]
CO[C@H]1CC[C@H](NC/C=C/C(=O)Nc2c(F)cc(C(=O)c3cnc4c(-c5cc6ncn(C)c6cc5C(F)(F)F)cccn34)cc2F)CC1 [Example 68, (E)-N-(2,6-difluoro-4-(8-(1-methyl-6-(trifluoromethyl)-1H-benzo[d]imidazol-5-yl)imidazo[1,2-a]pyridine-3-carbonyl)phenyl)-4-(((1r,4r)-4-methoxycyclohexyl)amino)but-2-enamide] | 57 | 240 | B (a binding rate of 60% or more and less than 80% is rated “B”)
Cc1cc2c(cc1-c1cccn3c(C(=O)c4cc(F)c(NC(=O)/C=C/CNC(C)(C)C)c(F)c4)ccc13)ncn2C [Example 72, (E)-4-(tert-butylamino)-N-(4-(8-(1,6-dimethyl-1H-benzo[d]imidazol-5-yl)indolizine-3-carbonyl)-2,6-difluorophenyl)but-2-enamide] | 34 | 200 | A (A binding rate of 80% or more is rated “A”)
CO[C@H]1CC[C@H](NC/C=C/C(=O)Nc2c(F)cc(C(=O)c3ccc4c(-c5cc6ncn(C)c6cc5C)cccn34)cc2F)CC1 [Example 73, (E)-N-(4-(8-(1,6-dimethyl-1H-benzo[d]imidazol-5-yl)indolizine-3-carbonyl)-2,6-difluorophenyl)-4-(((1r,4r)-4-methoxycyclohexyl)amino)but-2-enamide] | 32 | 280 | A (A binding rate of 80% or more is rated “A”)
COc1cc2c(cc1-c1cccn3c(C(=O)c4ccc(NC(=O)/C=C/CN[C@H]5CC[C@H](OC)CC5)c(C#N)c4)ccc13)ncn2C [Example 81, (E)-N-(2-cyano-4-(8-(6-methoxy-1-methyl-1H-benzo[d]imidazol-5-yl)indolizine-3-carbonyl)phenyl)-4-(((1r,4r)-4-methoxycyclohexyl)amino)but-2-enamide] | 21 | 70 | A (A binding rate of 80% or more is rated “A”)

Further compounds by falling IC50 [1], results first:

IC50 [1] [nM] | IC50 (MIA PaCa-2 cells) [nM] | SMILES | binding rate [2]
96 | 400 | CO[C@H]1CC[C@H](N(C)C/C=C/C(=O)Nc2ccc(C(=O)c3ccc4c(-c5cc6ncn(C)c6cc5C(F)(F)F)cccn34)cc2C#N)CC1 [Example 78, (E)-N-(2-cyano-4-(8-(1-methyl-6-(trifluoromethyl)-1H-benzo[d]imidazol-5-yl)indolizine-3-carbonyl)phenyl)-4-(((1r,4r)-4-methoxycyclohexyl)(methyl)amino)but-2-enamide] | C (a binding rate of 40% or more and less than 60% is rated “C”)
63 | 560 | Cn1cnc2cc(-c3cccn4c(C(=O)c5cc(F)c(NC(=O)/C=C/CNC(C)(C)C)c(F)c5)cnc34)c(C(F)(F)F)cc21 [Example 67, (E)-4-(tert-butylamino)-N-(2,6-difluoro-4-(8-(1-methyl-6-(trifluoromethyl)-1H-benzo[d]imidazol-5-yl)imidazo[1,2-a]pyridine-3-carbonyl)phenyl)but-2-enamide] | B (a binding rate of 60% or more and less than 80% is rated “B”)
27 | 72 | CO[C@H]1CC[C@H](NC/C=C/C(=O)Nc2c(F)cc(C(=O)c3ccc4c(-c5cc6ncn(C)c6cc5C(F)(F)F)cccn34)cc2F)CC1 [Example 70, (E)-N-(2,6-difluoro-4-(8-(1-methyl-6-(trifluoromethyl)-1H-benzo[d]imidazol-5-yl)indolizine-3-carbonyl)phenyl)-4-(((1r,4r)-4-methoxycyclohexyl)amino)but-2-enamide] | A (A binding rate of 80% or more is rated “A”)
27 | 190 | CO[C@H]1CC[C@H](NC/C=C/C(=O)Nc2ccc(C(=O)c3cnc4c(-c5cc6ncn(C)c6cc5C(F)(F)F)cccn34)cc2C#N)CC1 [Example 80, (E)-N-(2-cyano-4-(8-(1-methyl-6-(trifluoromethyl)-1H-benzo[d]imidazol-5-yl)imidazo[1,2-a]pyridine-3-carbonyl)phenyl)-4-(((1r,4r)-4-methoxycyclohexyl)amino)but-2-enamide] | A (A binding rate of 80% or more is rated “A”)
